Results on 8 compounds are retold here after article PMC6346239 (ChemistryOpen, 2019).

Read-outs that look alike come from different tables or passages of the source.

Assay [1] concerns the target T1, hAT2R (Homo sapiens, UniProt P50052).
T1 sequence (P50052 1-363): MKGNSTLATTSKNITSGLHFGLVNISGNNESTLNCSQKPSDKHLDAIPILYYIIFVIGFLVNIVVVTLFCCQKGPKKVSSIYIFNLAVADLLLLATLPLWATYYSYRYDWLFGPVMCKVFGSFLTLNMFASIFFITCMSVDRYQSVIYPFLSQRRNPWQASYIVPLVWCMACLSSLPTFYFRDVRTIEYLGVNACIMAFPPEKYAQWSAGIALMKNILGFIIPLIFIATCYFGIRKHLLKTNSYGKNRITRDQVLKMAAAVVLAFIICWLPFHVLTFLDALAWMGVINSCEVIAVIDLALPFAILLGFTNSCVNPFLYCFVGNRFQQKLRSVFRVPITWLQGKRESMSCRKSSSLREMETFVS
The class given is binding.

Assay [2] addresses T2, hAT1R (Homo sapiens, UniProt P30556).
T2 sequence (P30556 1-359): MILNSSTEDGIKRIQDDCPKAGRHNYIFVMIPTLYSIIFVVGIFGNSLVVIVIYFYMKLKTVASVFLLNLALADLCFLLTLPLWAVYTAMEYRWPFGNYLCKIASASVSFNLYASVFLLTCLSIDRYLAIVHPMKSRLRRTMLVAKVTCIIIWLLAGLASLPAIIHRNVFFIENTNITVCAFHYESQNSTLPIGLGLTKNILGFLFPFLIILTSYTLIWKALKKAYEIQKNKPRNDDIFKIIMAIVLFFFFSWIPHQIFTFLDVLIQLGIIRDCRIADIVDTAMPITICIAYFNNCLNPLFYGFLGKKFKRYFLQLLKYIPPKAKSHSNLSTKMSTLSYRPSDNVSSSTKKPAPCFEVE
Type of assay: binding. Particulars: read-out: % Inhibition of hAT1R at 10 μM.

Assay [3] deals with T2, hAT1R. The experiment in a line: Assay 2: whole cell competition binding assay, HEK293 cells expressing AT1R.
Assay [4] addresses T1, hAT2R. The experiment in a line: Assay 2: whole cell competition binding assay, HEK293 cells expressing AT2R.

By Ki is commonly meant a measure of affinity in units of concentration, obtained from inhibition or displacement. The low end stands for a stronger hold on the target, the high end for a looser hold on the target. Usually inhibition stands for how much of the control response was suppressed. At hAT2R [1], `CCCCOC(=O)NS(=O)(=O)c1sc(CC(C)C)cc1-c1ccc2c(c1)CN(C(C)=O)CC2` [Compound 87] gave a Ki of 270 nM. In addition, on hAT1R [2], the inhibition at 10 µM turned out to be 45%.

The IC50 is the concentration needed to halve the response being measured. A lower IC50 goes with greater potency. Take `CCCCOC(=O)NS(=O)(=O)c1sc(CC(C)C)cc1-c1ccc2c(c1)CCN(C(C)=O)C2` [Compound 86, Butyl ((3‐(2‐acetyl‐1,2,3,4‐tetrahydroisoquinolin‐6‐yl)‐5‐isobutylthiophen‐2‐yl)sulfonyl)carbamate]: on hAT2R [1], the Ki came to 56 nM. The “improvement of hAT2R affinity compared to C38” value at hAT2R [1] (versus C38) is 5 fold. On hAT2R [1] (versus C93 and C97), the “improvement of hAT2R affinity compared to amides C93 and C97” value is reported as 2 fold. At hAT1R [2], the inhibition at 10 µM was 34%. For the same compound, the IC50 at hAT1R [3] was more than 10000 nM; on hAT2R [4] it was 818 nM.

Consider `CCCCOC(=O)NS(=O)(=O)c1sc(CC(C)C)cc1-c1cccc2c1CN(C(C)=O)C2` [Compound 83], for which, at hAT2R [1], the IC50 is more than 3000 nM and the Ki is more than 1500 nM. Further, the inhibition at 10 µM on hAT1R [2] came out at 15%.

At hAT2R [1], `CCOC(=O)NS(=O)(=O)c1sc(CC(C)C)cc1-c1ccc2c(c1)CN(C(=O)OCC)C2` [Compound 89] gave an inhibitory constant (Ki) of 1300 nM. The “drop in hAT2R affinity compared to compound 86” value at hAT2R [1] (versus 86) was 20 fold. Further, the “decrease in hAT2R affinity compared to methyl carbamate 92” value on hAT2R [1] (versus 92) is approximately 5 fold. Besides, the inhibition at 10 µM at hAT1R [2] worked out at 26%.

Consider `CCCCOC(=O)NS(=O)(=O)c1sc(CC(C)C)cc1-c1ccc(OC(F)(F)F)c(Cn2ccnc2)c1` [Compound 47], for which, on hAT1R [2], the inhibition at 10 µM amounted to 1.8%.

`CCCCOC(=O)NS(=O)(=O)c1sc(CC(C)C)cc1-c1ccc2c(c1)CN(C(C)=O)C2` [Compound 85] returned an inhibition constant (Ki) at hAT2R [1] of 360 nM. For the same compound, on hAT1R [2], the inhibition at 10 µM was found to be 7.5%.

As to `CCOC(=O)NS(=O)(=O)c1sc(CC(C)C)cc1-c1ccc2c(c1)CN(C(C)=O)C2` [Compound 88], the Ki on hAT2R [1] came out at 870 nM. Besides, on hAT1R [2], the inhibition at 10 µM was 7.7%.

In turn, `CCOC(=O)NS(=O)(=O)c1sc(CC(C)C)cc1-c1ccc2c(c1)CN(C)C(=O)C2` [Compound 94] had an inhibition constant Ki on hAT2R [1] of 1300 nM. The inhibition at 10 µM at hAT1R [2] amounted to 1.5%.
